According to patent US20230339939A1 (Bayer Aktiengesellschaft, priority 2020, published 2023):

Experiments:
[1] = biological target: CSNK1D (Homo sapiens (Human), UniProt P48730); assay: CSNK1D Assay (ADP-Glo, 1 μM ATP); type: biochemical; details: median, read-out: CSNK1D IC50 [mol/l] (median)
Method: CSNK1D-inhibitory activity of compounds of the present invention in presence of 1 μM adenosine-tri-phosphate (ATP) was quantified employing the CSNK1 D assay as described in the following paragraphs. In essence, the enzyme activity is measured by quantification of the adenosine-di-phosphate (ADP), which is generated as a co-product of the enzyme reaction, via the “ADP-Glo™ Kinase Assay” kit from the company Promega. This detection system works as follows: In a first step the ATP not consumed in the kinase reaction is quantitatively converted to cAMP employing an adenylate cyclase (“ADP-Glo-reagent”), then the adenylate cyclase is stopped and the ADP generated in the kinase reaction converted to ATP which generates in a luciferase-based reaction a glow-luminescence signal (“Kinase Detection Reagent”).
Recombinant fusion protein of N-terminal Glutathion-S-Transferase (GST) and full-length human CSNK1D, expressed by baculovirus infected insect cells and purified via Glutathion affinity chromatography, was purchased from Life Technologies (product no. PV3665) and used as enzyme. As substrate for the kinase reaction the biotinylated peptide Btn-Ahx-[…] (C-terminus in amide form) was used which can be purchased e.g. from the company Biosyntan (Berlin-Buch, Germany).
For the assay 50 nl of a 100 fold concentrated solution of the test compound in DMSO was pipetted into a white 1536-well microtiter plate (Greiner Bio-One, Frickenhausen, Germany), 2 μL of a solution of CSNK1D in aqueous assay buffer [50 mM HEPES pH 7.5, 10% (v/v) glycerol, 10 mM MgCl2, 50 mM NaCl, 1 mM dithiothreitol, 0.01% (w/v) bovine serum albumin, 0.01% (v/v) Triton X-100] were added and the mixture was incubated for 15 min at 22° C. to allow pre-binding of the test compounds to the enzyme before the start of the kinase reaction. […] The concentration of CSNK1D was adjusted depending of the activity of the enzyme lot and was chosen appropriate to have the assay in the linear range, a typical concentration is about 0.5 ng/μL. The reaction was stopped by the addition of 2.5 μL of “ADP-Glo-reagent” (1:1.5 fold diluted with water) and the resulting mixture was incubated at 22° C. for 1 h to convert the ATP not consumed in the kinase reaction completely […]. Subsequently 2.5 μL of the “kinase detection reagent” (1.2 fold more concentrated than recommended by the producer) were added, the resulting mixture was incubated at 22° C. for 1 h and then the luminescence measured with a suitable measurement instrument (e.g. Viewlux™ from Perkin-Elmer). The amount of emitted light was taken as a measure for the amount of ADP generated and thereby for the activity of the CSNK1D.

[2] = biological target: CSNK1A1 (Homo sapiens (Human), UniProt P48729); assay: CSNK1A1 Assay 2 (ADP-Glo, 1 μM ATP, substrate biotin-Ahx-KRRRAL-pS-VASLPGL); type: biochemical; details: median, read-out: CSNK1A1 Assay 2 IC50 [mol/l] (median)
Chain of CSNK1A1 (P48729 whole entry): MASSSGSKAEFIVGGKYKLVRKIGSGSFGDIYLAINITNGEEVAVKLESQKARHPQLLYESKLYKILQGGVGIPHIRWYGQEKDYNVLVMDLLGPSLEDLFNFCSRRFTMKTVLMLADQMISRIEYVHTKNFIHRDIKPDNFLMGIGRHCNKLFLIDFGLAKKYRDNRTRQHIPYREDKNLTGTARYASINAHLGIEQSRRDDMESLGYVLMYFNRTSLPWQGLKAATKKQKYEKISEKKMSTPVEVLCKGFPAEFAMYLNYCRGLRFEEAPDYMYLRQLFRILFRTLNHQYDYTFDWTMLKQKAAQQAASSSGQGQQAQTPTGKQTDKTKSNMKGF
Method: CSNK1A1-inhibitory activity of compounds of the present invention in presence of 1 μM adenosine-tri-phosphate (ATP) was quantified employing the CSNK1A1 assay as described in the following paragraphs. In essence, the enzyme activity is measured by quantification of the adenosine-di-phosphate (ADP), which is generated as a co-product of the enzyme reaction, via the “ADP-Glo™ Kinase Assay” kit from the company Promega. This detection system works as follows: In a first step the ATP not consumed in the kinase reaction is quantitatively converted to cAMP employing an adenylate cyclase (“ADP-Glo-reagent”), then the adenylate cyclase is stopped and the ADP generated in the kinase reaction converted to ATP which generates in a luciferase-based reaction a glow-luminescence signal (“Kinase Detection Reagent”).
Recombinant fusion protein of N-terminal Glutathion-S-Transferase (GST) and full-length human CSNK1A1, expressed by baculovirus infected insect cells and purified via Glutathion affinity chromatography, was purchased from Life Technologies (product no. PV4174) and used as enzyme. As substrate for the kinase reaction the biotinylated peptide biotin-Ahx-KRRRAL-pS-VASLPGL (C-terminus in amide form) was used which can be purchased e.g. from the company Biosyntan (Berlin-Buch, Germany).
For the assay 50 nl of a 100 fold concentrated solution of the test compound in DMSO was pipetted into a white 1536-well microtiter plate (Greiner Bio-One, Frickenhausen, Germany), 2 μL of a solution of CSNK1A1 in aqueous assay buffer [50 mM HEPES pH 7.5, 10% (v/v) glycerol, 10 mM MgCl2, 50 mM NaCl, 1 mM dithiothreitol, 0.01% (w/v) bovine serum albumin, 0.01% (v/v) Triton X-100] were added and the mixture was incubated for 15 min at 22° C. to allow pre-binding of the test compounds to the enzyme before the start of the kinase reaction. […] The concentration of CSNK1A1 was adjusted depending of the activity of the enzyme lot and was chosen appropriate to have the assay in the linear range, a typical concentrations are about 0.0375 ng/μL. The reaction was stopped by the addition of 2.5 μL of “ADP-Glo-reagent” (1:1.5 fold diluted with water) and the resulting mixture was incubated at 22° C. for 1 h to convert the ATP not consumed in the kinase reaction completely […]. Subsequently 2.5 μL of the “kinase detection reagent” (1.2 fold more concentrated than recommended by the producer) were added, the resulting mixture was incubated at 22° C. for 1 h and then the luminescence measured with a suitable measurement instrument (e.g. Viewlux™ from Perkin-Elmer). The amount of emitted light was taken as a measure for the amount of ADP generated and thereby for the activity of the CSNK1A1.

Chain of CSNK1D (P48730 whole entry): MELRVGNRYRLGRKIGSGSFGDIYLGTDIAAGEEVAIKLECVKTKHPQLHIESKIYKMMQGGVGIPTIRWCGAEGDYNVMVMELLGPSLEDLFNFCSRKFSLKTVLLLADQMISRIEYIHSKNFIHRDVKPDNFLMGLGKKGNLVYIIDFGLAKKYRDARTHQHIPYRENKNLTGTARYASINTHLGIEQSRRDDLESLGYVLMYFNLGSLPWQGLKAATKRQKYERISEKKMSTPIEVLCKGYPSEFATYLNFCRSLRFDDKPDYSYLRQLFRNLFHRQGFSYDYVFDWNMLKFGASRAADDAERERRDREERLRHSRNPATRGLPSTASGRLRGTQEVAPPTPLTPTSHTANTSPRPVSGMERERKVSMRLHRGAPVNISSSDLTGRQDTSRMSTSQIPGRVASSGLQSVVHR

## COCC(C(=O)Nc1cc(-c2[nH]c3cc(F)cnc3c2-c2ccccn2)ccn1)c1ccc(F)cc1 (racemic) [Example 45, (2RS)-2-(4-fluorophenyl)-N-[4-[6-fluoro-3-(2-pyridyl)-1H-pyrrolo[3,2-b]pyridin-2-yl]-2-pyridyl]-3-methoxy-propanamide]
[1]
  IC50: 12 nM
[2]
  IC50: 4.83 nM

## CC(C(=O)Nc1cc(-c2[nH]c3cc(Cl)cnc3c2-c2ccccn2)ccn1)c1ccc(F)cc1 (centres unmarked) [Example 52, N-{4-[6-chloro-3-(pyridin-2-yl)-1H-pyrrolo[3,2-b]pyridin-2-yl]pyridin-2-yl}-2-(4-fluorophenyl)propanamide]
[1]
  IC50: 20.5 nM
[2]
  IC50: 6.26 nM

## O=C(Cc1ccc(F)cc1)Nc1cc(-c2[nH]c3c(N4CCCC4=O)ccnc3c2-c2ccccn2)ccn1 [Example 40, 2-(4-fluorophenyl)-N-{4-[7-(2-oxopyrrolidin-1-yl)-3-(pyridin-2-yl)-1H-pyrrolo[3,2-b]pyridin-2-yl]pyridin-2-yl}acetamide]
[1]
  IC50: 10.3 nM
[2]
  IC50: 6.26 nM

## CC(C(=O)Nc1cc(-c2[nH]c3cccnc3c2-c2ccccc2)ccn1)c1ccc(F)cc1 (racemic) [Example 11, 2-(4-fluorophenyl)-N-[4-(3-phenyl-1H-pyrrolo[3,2-b]pyridin-2-yl)pyridin-2-yl]propanamide]
[1]
  IC50: 7.02 nM
[2]
  IC50: 6.11 nM

## CC(C(=O)Nc1cc(-c2[nH]c3ccc(F)nc3c2-c2ccccn2)ccn1)c1ccc(F)cc1 (single isomer, unassigned; (-)) [Example 2, (−)-2-(4-fluorophenyl)-N-{4-[5-fluoro-3-(pyridin-2-yl)-1H-pyrrolo[3,2-b]pyridin-2-yl]pyridin-2-yl}propanamide]
[1]
  IC50: 32.2 nM
[2]
  IC50: 10.9 nM

## Cc1cc2[nH]c(-c3ccnc(NC(=O)C(C)c4ccc(F)cc4)c3)c(-c3ccccn3)c2nc1F (single isomer, unassigned; (-)) [Example 30, (−)-N-{4-[5-fluoro-6-methyl-3-(pyridin-2-yl)-1H-pyrrolo[3,2-b]pyridin-2-yl]pyridin-2-yl}-2-(4-fluorophenyl)propanamide]
[1]
  IC50: 4.65 nM
[2]
  IC50: 1.69 nM

## O=C(Cc1ccc(F)cc1)Nc1cc(-c2[nH]c3cccnc3c2-c2cccc(F)c2)ccn1 [Example 15, 2-(4-fluorophenyl)-N-{4-[3-(3-fluorophenyl)-1H-pyrrolo[3,2-b]pyridin-2-yl]pyridin-2-yl}acetamide]
[1]
  IC50: 3.4 nM
[2]
  IC50: 1.87 nM

## CC(C(=O)Nc1cc(-c2[nH]c3ccc(F)nc3c2-c2ccccn2)ccn1)c1ccc(F)cc1 (single isomer, unassigned; (+)) [Example 3, (+)-2-(4-fluorophenyl)-N-{4-[5-fluoro-3-(pyridin-2-yl)-1H-pyrrolo[3,2-b]pyridin-2-yl]pyridin-2-yl}propanamide]
[1]
  IC50: 2.87 nM
[2]
  IC50: 1 nM

## Cc1cc2[nH]c(-c3ccnc(NC(=O)C(C)c4ccc(F)cc4)c3)c(-c3ccccn3)c2nc1F (racemic) [Example 28, N-{4-[5-fluoro-6-methyl-3-(pyridin-2-yl)-1H-pyrrolo[3,2-b]pyridin-2-yl]pyridin-2-yl}-2-(4-fluorophenyl)propanamide]
[1]
  IC50: 11.3 nM
[2]
  IC50: 4.61 nM

## CC(C)C(C(=O)Nc1cc(-c2[nH]c3ccc(F)nc3c2-c2ccccn2)ccn1)c1ccc(F)cc1 (single isomer, unassigned; (-)) [Example 25, (−)-2-(4-fluorophenyl)-N-{4-[5-fluoro-3-(pyridin-2-yl)-1H-pyrrolo[3,2-b]pyridin-2-yl]pyridin-2-yl}-3-methylbutanamide]
[1]
  IC50: 56.3 nM
[2]
  IC50: 23.9 nM

## O=C(Cc1ccc(F)cc1)Nc1cc(-c2[nH]c3cccnc3c2-c2ccccn2)ccn1 [Example 5, 2-(4-fluorophenyl)-N-{4-[3-(pyridin-2-yl)-1H-pyrrolo[3,2-b]pyridin-2-yl]pyridin-2-yl}acetamide]
[1]
  IC50: 2.68 nM
[2]
  IC50: 1.06 nM

## O=C(Cc1ccccc1)Nc1cc(-c2[nH]c3cccnc3c2-c2ccccn2)ccn1 [Example 46, 2-phenyl-N-(4-(3-(pyridin-2-yl)-1H-pyrrolo[3,2-b]pyridin-2-yl)pyridin-2-yl)acetamide]
[1]
  IC50: 5.77 nM
[2]
  IC50: 2.25 nM

## Cc1cc2[nH]c(-c3ccnc(NC(=O)Cc4ccc(F)cc4)c3)c(-c3ccccn3)c2nc1F [Example 27, N-{4-[5-fluoro-6-methyl-3-(pyridin-2-yl)-1H-pyrrolo[3,2-b]pyridin-2-yl]pyridin-2-yl}-2-(4-fluorophenyl)acetamide]
[1]
  IC50: 5.11 nM
[2]
  IC50: 1.6 nM

## O=C(Cc1ccc(F)cc1)Nc1cc(-c2[nH]c3cccnc3c2-c2ccccc2)ccn1 [Example 14, 2-(4-fluorophenyl)-N-[4-(3-phenyl-1H-pyrrolo[3,2-b]pyridin-2-yl)pyridin-2-yl]acetamide]
[1]
  IC50: 2.64 nM
[2]
  IC50: 1.04 nM

## Cc1cc2[nH]c(-c3ccnc(NC(=O)C(C)c4ccc(F)cc4)c3)c(-c3ccccn3)c2nc1F (single isomer, unassigned; (+)) [Example 29, (+)-N-{4-[5-fluoro-6-methyl-3-(pyridin-2-yl)-1H-pyrrolo[3,2-b]pyridin-2-yl]pyridin-2-yl}-2-(4-fluorophenyl)propanamide]
[1]
  IC50: 30.2 nM
[2]
  IC50: 13.8 nM

## C=Cc1ccnc2c(-c3ccccn3)c(-c3ccnc(NC(=O)Cc4ccc(F)cc4)c3)[nH]c12 [Example 33, N-{4-[7-ethenyl-3-(pyridin-2-yl)-1H-pyrrolo[3,2-b]pyridin-2-yl]pyridin-2-yl}-2-(4-fluorophenyl)acetamide]
[1]
  IC50: 9.16 nM
[2]
  IC50: 3.97 nM

## O=C(Cc1ccc(F)cc1)Nc1cc(-c2[nH]c3cccnc3c2-c2ccc(Cl)s2)ccn1 [Example 17, N-{4-[3-(5-chlorothiophen-2-yl)-1H-pyrrolo[3,2-b]pyridin-2-yl]pyridin-2-yl}-2-(4-fluorophenyl)acetamide]
[1]
  IC50: 3.15 nM
[2]
  IC50: 1.88 nM

## CN1CCN(c2ccnc3c(-c4ccccn4)c(-c4ccnc(NC(=O)Cc5ccc(F)cc5)c4)[nH]c23)CC1 [Example 38, 2-(4-fluorophenyl)-N-{4-[7-(4-methylpiperazin-1-yl)-3-(pyridin-2-yl)-1H-pyrrolo[3,2-b]pyridin-2-yl]pyridin-2-yl}acetamide]
[1]
  IC50: 5.59 nM
[2]
  IC50: 3.32 nM

## CCc1ccnc2c(-c3ccccn3)c(-c3ccnc(NC(=O)Cc4ccc(F)cc4)c3)[nH]c12 [Example 34, N-{4-[7-ethyl-3-(pyridin-2-yl)-1H-pyrrolo[3,2-b]pyridin-2-yl]pyridin-2-yl}-2-(4-fluorophenyl)acetamide]
[1]
  IC50: 3.84 nM
[2]
  IC50: 3.08 nM
